Data as given in the supplement of paper PMC10331698.
± gives the standard deviation of the averaged measurements.

Assays:
Assay in all cases: LOEC (log10 uM (lowest observed effect concentration))
[1] = compound: O=C(O)C(F)(F)C(F)(F)C(F)(F)C(F)(F)C(F)(F)C(F)(F)C(F)(F)C(F)(F)C(F)(F)F [Perfluorodecanoic acid]
Protocol: (§1)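 BioMAP Diversity Plus panel in human primary cell co-cultures, 4 concentrations in duplicate blinded samples. Responses are log10 fold change versus DMSO control, processed with tcpl v2.1.0. A hit is called when responses at any concentration exceed the cutoff (the larger of 3*bmad or log10(1.2)); the lowest observed effect concentration (modl_ga, log10 uM) is reported for hits.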

[2] = compound: OCCCC(F)(F)C(F)(F)C(F)(F)C(F)(F)C(F)(F)C(F)(F)C(F)(F)F [7:3 Fluorotelomer alcohol]
Protocol: as §1

[3] = compound: OCCC(F)(F)C(F)(F)C(F)(F)C(F)(F)C(F)(F)C(F)(F)F [6:2 Fluorotelomer alcohol]
Protocol: as §1

[4] = compound: C[N+](C)(C)CCCNS(=O)(=O)C(F)(F)C(F)(F)C(F)(F)C(F)(F)C(F)(F)C(F)(F)C(F)(F)C(F)(F)F [Perfluorooctanesulfonamido ammonium iodide]
Protocol: as §1

[5] = compound: CCN(CCO)S(=O)(=O)C(F)(F)C(F)(F)C(F)(F)C(F)(F)C(F)(F)C(F)(F)C(F)(F)C(F)(F)F [N-Ethyl-N-(2-hydroxyethyl)perfluorooctanesulfonamide]
Protocol: as §1

Test System: LPS Eselectin down
- LOEC (log10 uM) [1]: 1.78
- LOEC (log10 uM) [2]: 1.78

Test System: 3C TissueFactor down
- LOEC (log10 uM) [1]: 1.78
- LOEC (log10 uM) [2]: 1.54 ± 0.34
- LOEC (log10 uM) [3]: 1.78

Test System: hDFCGF MCSF up
- LOEC (log10 uM) [4]: 1.78

Test System: SAg MCP1 down
- LOEC (log10 uM) [1]: 1.78
- LOEC (log10 uM) [2]: 1.54 ± 0.34
- LOEC (log10 uM) [5]: 1.54 ± 0.34

Test System: LPS IL8 down
- LOEC (log10 uM) [1]: 1.78
- LOEC (log10 uM) [2]: 1.78
- LOEC (log10 uM) [4]: 1.3

Test System: KF3CT IL1a down
- LOEC (log10 uM) [1]: 1.78
- LOEC (log10 uM) [2]: 1.54 ± 0.34
- LOEC (log10 uM) [5]: 1.3

Test System: 4H VEGFRII down
- LOEC (log10 uM) [1]: 1.78
- LOEC (log10 uM) [2]: 1.78

Test System: LPS CD40 down
- LOEC (log10 uM) [1]: 1.78
- LOEC (log10 uM) [2]: 1.78
- LOEC (log10 uM) [3]: 1.78
- LOEC (log10 uM) [4]: 1.78

Test System: BT xIL6 down
- LOEC (log10 uM) [2]: 1.3
- LOEC (log10 uM) [5]: 1.78

Test System: MyoF Decorin down
- LOEC (log10 uM) [1]: 1.78
- LOEC (log10 uM) [2]: 1.78

Test System: KF3CT MCP1 down
- LOEC (log10 uM) [1]: 1.07 ± 0.32
- LOEC (log10 uM) [2]: 1.54 ± 0.34

Test System: hDFCGF MCP1 down
- LOEC (log10 uM) [1]: 1.78
- LOEC (log10 uM) [2]: 1.3
- LOEC (log10 uM) [5]: 1.3
- LOEC (log10 uM) [3]: 1.78
- LOEC (log10 uM) [4]: 1.78

Test System: CASM3C SAA down
- LOEC (log10 uM) [2]: 1.78

Test System: CASM3C LDLR up
- LOEC (log10 uM) [4]: 1.54 ± 0.34

Test System: LPS MCSF down
- LOEC (log10 uM) [1]: 1.78
- LOEC (log10 uM) [2]: 1.78
- LOEC (log10 uM) [4]: 1.78

Test System: 3C MCP1 down
- LOEC (log10 uM) [1]: 1.78
- LOEC (log10 uM) [2]: 1.54 ± 0.34
- LOEC (log10 uM) [5]: 1.3
- LOEC (log10 uM) [3]: 1.78

Test System: hDFCGF MIG down
- LOEC (log10 uM) [1]: 1.07 ± 0.32
- LOEC (log10 uM) [2]: 1.3
- LOEC (log10 uM) [5]: 1.3
- LOEC (log10 uM) [3]: 1.78

Test System: BF4T tPA up
- LOEC (log10 uM) [5]: 1.78

Test System: BE3C Keratin818 down
- LOEC (log10 uM) [1]: 1.3
- LOEC (log10 uM) [2]: 1.78

Test System: SAg IL8 down
- LOEC (log10 uM) [1]: 1.78
- LOEC (log10 uM) [2]: 1.54 ± 0.34

Test System: IMphg IL8 down
- LOEC (log10 uM) [4]: 1.54 ± 0.34

Test System: 4H uPAR down
- LOEC (log10 uM) [1]: 1.78
- LOEC (log10 uM) [2]: 1.78

Test System: IMphg MIP1a down
- LOEC (log10 uM) [1]: 1.78
- LOEC (log10 uM) [4]: 1.78

Test System: KF3CT IP10 down
- LOEC (log10 uM) [1]: 1.3
- LOEC (log10 uM) [2]: 1.54 ± 0.34
- LOEC (log10 uM) [5]: 1.3
- LOEC (log10 uM) [4]: 1.78

Test System: 4H Pselectin down
- LOEC (log10 uM) [1]: 1.78
- LOEC (log10 uM) [2]: 1.78
- LOEC (log10 uM) [5]: 1.54 ± 0.34
- LOEC (log10 uM) [4]: 1.78

Test System: BF4T MMP9 down
- LOEC (log10 uM) [1]: 1.3
- LOEC (log10 uM) [2]: 1.78
- LOEC (log10 uM) [4]: 1.78

Test System: hDFCGF CollagenIII down
- LOEC (log10 uM) [1]: 1.78
- LOEC (log10 uM) [2]: 1.3
- LOEC (log10 uM) [4]: 1.07 ± 0.32

Test System: 3C HLADR down
- LOEC (log10 uM) [1]: 1.78
- LOEC (log10 uM) [2]: 1.54 ± 0.34
- LOEC (log10 uM) [5]: 1.78
- LOEC (log10 uM) [3]: 1.78

Test System: 3C IL8 down
- LOEC (log10 uM) [1]: 1.78
- LOEC (log10 uM) [2]: 1.78
- LOEC (log10 uM) [4]: 1.78

Test System: KF3CT uPA down
- LOEC (log10 uM) [1]: 1.78
- LOEC (log10 uM) [2]: 1.54 ± 0.34
- LOEC (log10 uM) [5]: 1.78

Test System: LPS Thrombomodulin down
- LOEC (log10 uM) [1]: 1.78
- LOEC (log10 uM) [2]: 1.78

Test System: KF3CT IL8 down
- LOEC (log10 uM) [2]: 1.78
- LOEC (log10 uM) [5]: 0.845

Test System: BT Bcell Proliferation down
- LOEC (log10 uM) [2]: 1.3
- LOEC (log10 uM) [5]: 1.54 ± 0.34

Test System: LPS SRB down
- LOEC (log10 uM) [1]: 1.78
- LOEC (log10 uM) [2]: 1.78
- LOEC (log10 uM) [5]: 1.54 ± 0.34
- LOEC (log10 uM) [4]: 1.78

Test System: KF3CT MMP9 down
- LOEC (log10 uM) [1]: 1.07 ± 0.32
- LOEC (log10 uM) [2]: 1.3
- LOEC (log10 uM) [5]: 1.54 ± 0.34
- LOEC (log10 uM) [4]: 1.78

Test System: BE3C IL8 down
- LOEC (log10 uM) [1]: 1.3
- LOEC (log10 uM) [2]: 1.78
- LOEC (log10 uM) [5]: 1.3
- LOEC (log10 uM) [4]: 1.54 ± 0.34

Test System: 3C Eselectin down
- LOEC (log10 uM) [1]: 1.78
- LOEC (log10 uM) [2]: 1.54 ± 0.34

Test System: SAg PBMCCytotoxicity down
- LOEC (log10 uM) [1]: 1.78
- LOEC (log10 uM) [2]: 1.3
- LOEC (log10 uM) [5]: 1.54 ± 0.34
- LOEC (log10 uM) [3]: 1.78

Test System: CASM3C IL6 down
- LOEC (log10 uM) [2]: 1.78

Test System: BF4T CD90 down
- LOEC (log10 uM) [1]: 1.3
- LOEC (log10 uM) [2]: 1.78

Test System: MyoF CollagenIV down
- LOEC (log10 uM) [2]: 1.78

Test System: CASM3C uPAR down
- LOEC (log10 uM) [2]: 1.78
- LOEC (log10 uM) [5]: 1.54 ± 0.34

Test System: KF3CT PAI1 down
- LOEC (log10 uM) [1]: 1.3
- LOEC (log10 uM) [2]: 1.3
- LOEC (log10 uM) [5]: 0.845
- LOEC (log10 uM) [4]: 1.78

Test System: CASM3C HLADR down
- LOEC (log10 uM) [2]: 1.54 ± 0.34
- LOEC (log10 uM) [5]: 1.54 ± 0.34

Test System: BE3C ICAM1 down
- LOEC (log10 uM) [1]: 1.3
- LOEC (log10 uM) [2]: 1.78

Test System: BT xIL2 down
- LOEC (log10 uM) [2]: 1.3
- LOEC (log10 uM) [5]: 1.3
- LOEC (log10 uM) [4]: 1.78

Test System: hDFCGF SRB down
- LOEC (log10 uM) [1]: 1.78
- LOEC (log10 uM) [2]: 1.3
- LOEC (log10 uM) [5]: 0.573 ± 0.39
- LOEC (log10 uM) [3]: 1.78
- LOEC (log10 uM) [4]: 1.78

Test System: hDFCGF EGFR down
- LOEC (log10 uM) [2]: 1.3

Test System: BF4T SRB down
- LOEC (log10 uM) [1]: 1.3
- LOEC (log10 uM) [2]: 1.78

Test System: BE3C SRB down
- LOEC (log10 uM) [1]: 1.3
- LOEC (log10 uM) [2]: 1.78
- LOEC (log10 uM) [5]: 1.78

Test System: MyoF TIMP1 down
- LOEC (log10 uM) [1]: 1.78
- LOEC (log10 uM) [2]: 1.78

Test System: IMphg MCP1 down
- LOEC (log10 uM) [1]: 1.78
- LOEC (log10 uM) [2]: 1.78

Test System: MyoF Decorin up
- LOEC (log10 uM) [4]: 1.07 ± 0.32

Test System: 4H Eotaxin3 down
- LOEC (log10 uM) [1]: 1.78
- LOEC (log10 uM) [2]: 1.54 ± 0.34
- LOEC (log10 uM) [5]: 1.54 ± 0.34
- LOEC (log10 uM) [4]: 1.78

Test System: KF3CT ICAM1 down
- LOEC (log10 uM) [1]: 1.78
- LOEC (log10 uM) [2]: 1.54 ± 0.34

Test System: BF4T IL1a down
- LOEC (log10 uM) [1]: 1.54 ± 0.34
- LOEC (log10 uM) [2]: 1.78
- LOEC (log10 uM) [4]: 1.78

Test System: CASM3C MCP1 down
- LOEC (log10 uM) [2]: 1.3

Test System: 3C Thrombomodulin up
- LOEC (log10 uM) [5]: 1.3

Test System: IMphg VCAM1 down
- LOEC (log10 uM) [1]: 1.78
- LOEC (log10 uM) [4]: 1.54 ± 0.34

Test System: BE3C MMP9 down
- LOEC (log10 uM) [1]: 1.3
- LOEC (log10 uM) [2]: 1.78
- LOEC (log10 uM) [5]: 1.54 ± 0.34

Test System: BT PBMCCytotoxicity down
- LOEC (log10 uM) [2]: 1.3
- LOEC (log10 uM) [3]: 1.78

Test System: SAg Eselectin down
- LOEC (log10 uM) [1]: 1.78
- LOEC (log10 uM) [2]: 1.78

Test System: LPS PGE2 down
- LOEC (log10 uM) [1]: 1.78
- LOEC (log10 uM) [4]: 1.3
